Measured values: patent publication US20200108115A1, “MEDICINAL COMPOSITION DERIVED FROM MULTIPLE PLANT SOURCES FOR GASTROINTESTINAL DISORDER” (priority 2017, published 2020)
≈ marks a conversion by molar mass, not a printed value.

Columns and labels:
Experiment in all cases: MIC by resazurin micro-titre method
Assay type in all cases: cell-based
[1] = tested on: Faecalibacterium prausnitzii (BB5); conditions: beneficial, 37° C., 18-24 h
[2] = tested on: Bacteroides fragilis (BB3); conditions: beneficial, 37° C., 18-24 h
Vibrio cholera (P5) = conditions: Vibrio cholerae, read-out: MIC value
[3] = tested on: Streptococcus thermophilus (BB2); conditions: beneficial, 37° C., 18-24 h
Klebsiella oxytoca (P4) = conditions: 37° C., 18-24 h
Helicobacter pylori (P6) = conditions: read-out: MIC value
[4] = tested on: Shigella dysenteriae (P7); conditions: read-out: MIC value
[5] = tested on: Salmonella typhimurium (P3); conditions: Salmonella enterica, 37° C., 18-24 h

## O=C(O)c1cn(C2CC2)c2cc(N3CCNCC3)c(F)cc2c1=O [Ciprofloxacin, ciprofloxacin]
[1]
  MIC: 31.2 µg/mL (≈ 94.3 µM)
[2]
  MIC: 62.5 µg/mL (≈ 189 µM)
Vibrio cholera (P5)
  MIC: 125 µg/mL (≈ 377 µM)
[3]
  MIC: 31.2 µg/mL (≈ 94.3 µM)
Klebsiella oxytoca (P4)
  MIC: 500 µg/mL (≈ 1510 µM)
Helicobacter pylori (P6)
  MIC: 15.1 µg/mL (≈ 45.6 µM)
[4]
  MIC: 15.1 µg/mL (≈ 45.6 µM)
[5]
  MIC: 1000 µg/mL (≈ 3020 µM)
